{"source": "patent US10064865B2", "about": "“Composition comprising phosphodiesterase type 5 inhibitor for inhibiting apoptosis of nerve cells” (ARIBIO INC., priority 2012, dated 2018)", "assay_type_in_all_cases": "in vivo, Sprague-Dawley (SD) rats", "key": {"[1]": {"test_system": "neuron apoptosis-operated rats", "experiment": "Example 2 hindlimb placing test", "description": "Sensorimotor function was evaluated by use of limb placing (de Ryck M et al., Stroke. 20:1383-90(1989)) and body swing (Borlongan and Sanberg, J Neurosci. 15:5372-8(1995)) tests. These tests were performed at 1 and 28 days after neuron apoptosis. The investigator performing the surgery and behavioral assessments was blinded to treatment assignment.\nLimb placing test: Forelimb and hindlimb placement were assessed independently. For the forelimb placing test, the rats were held by their torso with their forepaws hanging free and moved slowly toward the edge of a tabletop, stopping short of touching the vibrissae (for vision-induced placing), touching the vibrissae (for vibrissae-induced placing), making light contact with the front of the forepaw to the edge of the tabletop (for tactile-induced placing), and pressing the forepaws to the edge of the table with increased pressure (for proprioceptive-induced placing). Hindlimb placing was conducted in the same manner as above but with tactile and proprioceptive stimulation applied to the front/top of each hindlimb. Each limb for placing in response to visual, vibrissae, tactile, and proprioceptive stimulation are scored in the following manner: normal performance=0 points; performance with unilateral limb=1 point; performance with a delay (2 seconds) and/or incomplete=2 point; no performance=3 points. A total of 12 points in forelimb placing test and 6 points in hindlimb placing test means maximal neurological deficit, and 0 points means normal performance.\nAll data were expressed as mean±standard deviation (S.D.) of ten rats. Multiple comparison tests for different dose groups were conducted. Variance homogeneity was examined using the Levene test (Levene A, Clin Otalary, 1981; 6:145-51). […] In addition, the percent changes as compared with neuron apoptosis control and mirodenafil treated rats were calculated to help the understanding of the efficacy of test substances as follow Equation 6 and 7. […]"}, "[2]": {"experiment": "Example 1 body weight measurements", "settings": "for Weight gains [B − A]: during 29 days after neuron apoptosis"}, "[3]": {"experiment": "Example 2 body weight measurements", "settings": "for Body weights at 29 days after surgery [B] / Weight gains [B − A]: 1 mg/kg s.c. once a day for 14 days; for Body weights at Before surgery / Body weights at surgery [A]: before treatment", "description": "Changes of body weight were measured at 1 day before neuron apoptosis, the day of neuron apoptosis, 1, 3, 7, 14, 21, 28 and 29 days after neuron apoptosis. […] Body weight gains (g) during 29 days after neuron apoptosis=(Body weight at the 29 days after neuron apoptosis−body weight at the day of neuron apoptosis) [EQUATION 5]\nAll data were expressed as mean±standard deviation (S.D.) of ten rats. Multiple comparison tests for different dose groups were conducted. Variance homogeneity was examined using the Levene test (Levene A, Clin Otalary, 1981; 6:145-51). […] Statistical analyses were conducted using SPSS for Windows (Release 14K, SPSS Inc., USA; Ludbrook, Clin Exp Pharmacol Physiol, 1997; 24:294-6). In addition, the percent changes as compared with neuron apoptosis control and mirodenafil treated rats were calculated to help the understanding of the efficacy of test substances as follow Equation 6 and 7. Percentage Changes as Compared with Sham Control (%)=[((Data of neuron apoptosis control−Data of sham control rat)/Data of sham control rats)×100] [EQUATION 6] Percentage Changes as Compared with neuron apoptosis Control (%)=[((Data of test material treated rats−Data of neuron apoptosis control rats)/Data of neuron apoptosis control rats)×100] [EQUATION 7]"}, "[4]": {"settings": "1 mg/kg from 24 hrs after surgery"}, "[5]": {"settings": "1 mg/kg from 72 hrs after surgery"}, "[6]": {"settings": "1 mg/kg from 168 hrs after surgery"}}, "note": "Marks after values point to notes of the source that are not given here."}
{"smiles": "CCCOc1ccc(S(=O)(=O)N2CCN(CCO)CC2)cc1-c1nc2c(CCC)cn(CC)c2c(=O)[nH]1", "note": "[Mirodenafil, mirodenafil]", "values": [{"measurement": "hindlimb placing test scores at 28 days, change as compared with neuron apoptosis control", "setting": "[1]; [4]", "result": "−65.22", "unit": "%"}, {"measurement": "hindlimb placing test scores at 28 days, change as compared with neuron apoptosis control", "setting": "[1]; [5]", "result": "−39.13", "unit": "%"}, {"measurement": "hindlimb placing test scores at 28 days, change as compared with neuron apoptosis control", "setting": "[1]; [6]", "result": "−17.39", "unit": "%"}, {"measurement": "body weight gains during 29 days, change as compared with neuron apoptosis control", "setting": "[2]; 0.5 mg/kg", "result": 45.53, "unit": "%"}, {"measurement": "Body weights at 29 days after surgery [B]", "setting": "[2]; 0.5 mg/kg s.c. once a day", "result": "502.60 ± 23.09^a"}, {"measurement": "Weight gains [B − A]", "setting": "[2]; 0.5 mg/kg s.c. once a day", "result": "−7.60 ± 9.19^a g"}, {"measurement": "Body weights at 29 days after surgery [B]", "setting": "[2]; 1 mg/kg s.c. once a day", "result": "526.40 ± 23.45^bd"}, {"measurement": "Weight gains [B − A]", "setting": "[2]; 1 mg/kg s.c. once a day", "result": "16.10 ± 7.80^ac g"}, {"measurement": "Body weights at 29 days after surgery [B]", "setting": "[2]; 2 mg/kg s.c. once a day", "result": "520.90 ± 30.21^b"}, {"measurement": "Weight gains [B − A]", "setting": "[2]; 2 mg/kg s.c. once a day", "result": "7.50 ± 11.20^ac g"}, {"measurement": "body weight gains during 29 days, change as compared with neuron apoptosis control", "setting": "[3]; [4]", "result": 43.24, "unit": "%"}, {"measurement": "body weight gains during 29 days, change as compared with neuron apoptosis control", "setting": "[3]; [5]", "result": 33.78, "unit": "%"}, {"measurement": "body weight gains during 29 days, change as compared with neuron apoptosis control", "setting": "[3]; [6]", "result": 11.04, "unit": "%"}, {"measurement": "Body weights at 29 days after surgery [B]", "setting": "[3]; start 24 hrs after operation", "result": "357.13 ± 15.38^ab g"}, {"measurement": "Weight gains [B − A]", "setting": "[3]; start 24 hrs after operation", "result": "79.50 ± 14.09^ab g"}, {"measurement": "Body weights at 29 days after surgery [B]", "setting": "[3]; start 72 hrs after operation", "result": "349.38 ± 10.28^ac g"}, {"measurement": "Weight gains [B − A]", "setting": "[3]; start 72 hrs after operation", "result": "74.25 ± 14.95^ab g"}, {"measurement": "Body weights at 29 days after surgery [B]", "setting": "[3]; start 168 hrs after operation", "result": "338.63 ± 15.26^a g"}, {"measurement": "Weight gains [B − A]", "setting": "[3]; start 168 hrs after operation", "result": "61.63 ± 6.78^a g"}, {"measurement": "Body weights at Before surgery", "setting": "[3]; 1 mg/kg start 24 hrs group", "result": "307.75 ± 15.84", "unit": "g"}, {"measurement": "Body weights at surgery [A]", "setting": "[3]; 1 mg/kg start 24 hrs group", "result": "277.63 ± 15.07", "unit": "g"}, {"measurement": "Body weights at Before surgery", "setting": "[3]; 1 mg/kg start 72 hrs group", "result": "307.25 ± 11.36", "unit": "g"}, {"measurement": "Body weights at surgery [A]", "setting": "[3]; 1 mg/kg start 72 hrs group", "result": "275.13 ± 12.21", "unit": "g"}, {"measurement": "Body weights at Before surgery", "setting": "[3]; 1 mg/kg start 168 hrs group", "result": "307.88 ± 10.53", "unit": "g"}, {"measurement": "Body weights at surgery [A]", "setting": "[3]; 1 mg/kg start 168 hrs group", "result": "277.00 ± 10.41", "unit": "g"}]}
